{"source": "patent US20250332212A1", "about": "“METHOD FOR TREATING OR PREVENTING ALOPECIA” (Suzhou Mingren Pharmaceutical Biotechnology Co., Ltd., priority 2024, published 2025)", "key": {"type II 5α-reductase": {"target": "type II 5α-reductase (Homo sapiens, UniProt P31213)", "sequence (P31213 whole entry)": "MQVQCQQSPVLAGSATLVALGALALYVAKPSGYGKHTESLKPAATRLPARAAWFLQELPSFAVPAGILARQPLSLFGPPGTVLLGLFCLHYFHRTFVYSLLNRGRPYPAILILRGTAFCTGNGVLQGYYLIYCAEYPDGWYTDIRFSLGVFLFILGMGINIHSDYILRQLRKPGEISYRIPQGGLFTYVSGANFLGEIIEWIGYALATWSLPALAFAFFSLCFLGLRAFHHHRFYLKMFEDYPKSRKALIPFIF", "details": "in serum and scalp; cited from earlier work"}, "[1]": {"details": "background statement; cited from earlier work"}, "[2]": {"system": "SP1, Wnt10a, Wnt10b and β-catenin", "assay": "Immunoblotting of SP1 and downstream molecules in skin, Animal model III", "type": "in vivo, mouse", "details": "dorsal skin", "protocol": "4.1) Protein extraction: 70 mg of skin tissue was placed in a 1.5 mL centrifuge tube, and 500 μL of tissue lysate RIPA containing protease inhibitor and phosphatase inhibitor was added. The tissue was placed on an ice box, pulverized by a tissue grinder, and then ultrasonically crushed to obtain a tissue suspension, which was then placed in a rotary windmill at 4° C. to be lysed for 2 h. The centrifuge was set at 12,000×g, 4° C., centrifuged for 15 min, and the supernatant was collected as the total protein.\n5.1) Heating of protein samples: the total protein content of each tissue was 50 μg; calculate the volume of a corresponding protein sample, make up the volume with saline to 16 μL, then add 4 μL of 5×SDS sampling buffer, heat at 100° C. for 5 min, and then cool at room temperature and store at −20° C.\n5.7) Primary antibody incubation: the cut protein bands were placed into the corresponding primary antibody and incubated at 4° C. on a shaker overnight, washed with TBST 3 times for 10 min/time."}, "[3]": {"system": "TP-induced AGA model mice", "assay": "TP-induced AGA model, Animal model III (specific inhibition of SP1 by MTA)", "type": "in vivo, C57BL/6J male mice", "details": "MTA 0.3 mg/kg/d intraperitoneally with 1% JP1", "source_text": "To verify that JP1 promotes AGA follicle regeneration through the activation of the Wnt/β-catenin signaling pathway via the MAPK/E2F1/SP1 signaling axis, the example constructed a mouse model of AGA with specific inhibition of SP1 (FIG. 15A). The specific experimental details are described according to “Animal model III” of “1. TP-induced AGA model” in “Experimental Methods”.\nTo further confirm that JP1 promotes the growth of hair follicles on the back of AGA model mice through the SP1-regulated Wnt/β-catenin signaling pathway at the histomorphometric level, H&E staining was performed on the skin tissues of the model mice of Example 15 at different time points (days 4, 8, and 12 post-intervention).\nThe mice used in this study were 5-week-old C57BL/6J male mice (18-20 g), which were purchased from Jiangsu Jicui Pharmachem Biotechnology Co. All the animals used in the experiments were housed in the SPF-level environment of the Medical Laboratory Animal Center of Nanjing Medical University, and the relevant animal experimental operations were approved by the Animal Ethics Committee of Nanjing Medical University. The control group was left untreated, and the other groups were injected with TP subcutaneously on their backs every day. Two weeks later, the hair on the backs of the mice was shaved with an electric razor, covering an area of 2 cm×4 cm, and then the residual hair was removed with a hair removal cream. The subcutaneous injections of TP on the shaved backs of the mice in the AGA model was continued until the end of the experimental period, and the administration of TP in each of the treatment groups was begun on the 1st day of the dehairing process.\nIn addition to the normal control group (denoted as control) n=20, all mice injected subcutaneously with TP were randomly divided into the following groups (n=20): the model group (denoted as model), the 1% JP1 (skin-coated), and the 1% JP1+MTA group. […] MTA was administered at a dose of 0.3 mg/kg/d, qd, intraperitoneally, 100 μL/dose.\nMice were weighed every two days during the experiment. Skin color was assessed against skin score charts. The mice were euthanized and treated at the end of the experiment, and skin tissues were taken from the dorsal decorticated area of the mice. Some of the tissues were fixed with 4% paraformaldehyde solution and then paraffin sections were made for H&E or immunofluorescence staining, etc., and some of the tissues were stored in the refrigerator at −80° C. for relevant molecular expression assays (qRT-PCR, Western Blot, IP, etc.).\n8.1) Sampling and fixation: After the experiment, skin tissue was taken from the depilated area on the back of the mouse and placed in a 10 mL EP tube. 4% paraformaldehyde was added to the EP tube, and all tissues were immersed to denature and coagulate the proteins of the skin tissue. The original morphology and structure of the cells were maintained.\n8.6) H&E staining: the sections pretreated in distilled water were put into aqueous hematoxylin solution for a few minutes for staining. The color was separated in acid water and ammonia for a few seconds each. After rinsing in running water for 1 h, the sections were placed in distilled water for a few moments. The sections were dehydrated in 70% and 90% alcohol for 10 min each, and stained in alcoholic eosin stain for 2-3 min."}}, "data": [{"molecule": "CC(C)(C)NC(=O)[C@H]1CC[C@H]2[C@@H]3CC[C@H]4NC(=O)C=C[C@]4(C)[C@H]3CC[C@]12C", "note": "[finasteride]", "values": [{"measurement": "reduction of double hydrogen testosterone (DHT)", "setting": "type II 5α-reductase", "result": "more than 60%"}]}, {"molecule": "Nc1cc(N2CCCCC2)nc(N)[n+]1[O-]", "note": "[minoxidil]", "values": [{"measurement": "adverse reactions", "setting": "[1]", "result": "itchiness of the scalp, dermatitis, and localized hirsutism"}]}, {"molecule": "Mithramycin A [MTA, reference compound]", "values": [{"measurement": "effect of MTA on JP1-induced expression of SP1 downstream molecules", "setting": "[2]", "result": "block the effect of JP1 on the expression of SP1 downstream molecules"}, {"measurement": "effect of SP1 inhibition on hair follicle growth promotion by JP1", "setting": "[3]", "result": "blocked the hair follicle growth-promoting effect of JP1"}]}]}
